Measurements reported in patent US5204311A, “Ethanediimidic acid bis[(arylalkylidene)hydrazide] color-formers” (Minnesota Mining and Manufacturing Company, priority 1991, dated 1993).

How the values were obtained:
[1] = Color (Hunter coordinates) of Ni complex, swabbed on Ni-coated receptor (CF) sheet; format: physicochemical; parameters: key to Hunter coordinate a / Hunter Coordinates a: Hunter a: +a red, -a green; key to Hunter coordinate b / Hunter Coordinates b: Hunter b: +b yellow, -b blue; conditions: for Chroma: C=(a^2 +b^2)^1/2; for Chroma / Image Color / Hunter Coordinates L / Hunter Coordinates a / Hunter Coordinates b: Ni(II) complex; for Chroma / Image Color: swab concn. 1% (Table 2); for Hunter Coordinates L / Hunter Coordinates a / Hunter Coordinates b: swab concn. 1%, 45°/0° reflectance, illuminant C (Table 2)
Experimental: In general, the colors of the complexes, as listed in Table 2 and Experiments 4, 6, and 7 below, were determined by preparing a 1% solution of the color-former or mixture of color-formers in an appropriate solvent. Unless otherwise indicated, the solvent was composed of a mixture of tributyl phosphate (26.5%), diethyl phthalate (17.6%), and cyclohexane (55.9%). The images were formed by applying two stripes of the solution to a substrate coated with a Ni^2+ coated receptor sheet using a cotton tipped applicator swab. Rapid and complete development of the image was achieved by passing the sheet through a hot shoe adjusted to 102° C., making a revolution every 10 seconds. The visually observed colors were measured and recorded.
One method of color measurement is to determine the color's position in color space. One color space system is the Hunter System; see F. W. Billmeyer, Jr., and M. Saltzman, Principles of Color Technology; John Wiley & Sons; New York, N.Y.; Ch. 2 & 3, 1981. In this system three mutually perpendicular axes (L, a, and b) are needed to define a color. "L" (+z axis) represents the lightness or darkness of the image; "a" (x axis) represents the amount of red or green (+a is red, -a is green); and "b" (y axis) represents the amount of yellow or blue (+b is yellow, -b is blue). By measuring a material's L, a, and b values, the color of one sample can be compared with that of other samples. Another value used in the Hunter System is Chroma (C). Chroma is defined by the equation [C=(a^2 +b^2)^1/2 ] and represents the distance of the image coordinates from the origin. The greater the Chroma, the more intense the image. Chroma is used to compare images cf the same hue. Because the color of a sample is also dependent upon the color temperature of the illuminating source, the angle at which the sample is illuminated, the angle at which the illumination is reflected, and the angle of the retina illuminated, these all need to be specified. Many instruments have been developed to record these values. One such instrument is the HunterLab LabScan II. This instrument is capable of automatically determining the L, a, and b values for a given sample, and was used for the following examples.
The L, a, and b color coordinates of the more uniform stripe were measured for 45°/0° reflectance on a HunterLab LabScan II, secondary observer, using illuminant C. The observed (image) color and the Hunter coordinates for Ni^2+ complexes of the yellow color-formers of this invention are given in Table 2.
A 1% solution of the condensation product in the encapsulation fill mix was swabbed onto a carbonless paper CF sheet (sold by the 3M Co. St. Paul, Minn.) with a cotton swab. The reflectance spectra had Hunter coordinates of: […]

[2] = Solubility in capsule fill solvents; format: physicochemical; conditions: for Dye Solubility: 4320 min
Experimental: The encapsulation process requires the color-forming ligand be dissolved in a solvent or mixed solvents, because of the nature of the procedure. Formation of a microcapsule shell as by condensation of urea or melamine with an aldehyde such as formaldehyde or mixtures of aldehydes to form the capsule shell is carried out in an acidic aqueous medium and the color-former solution must be insoluble and unreactive to these reagents for the encapsulation to proceed. Solvents commonly used include tributyl phosphate, diethyl phthalate, and cyclohexane. […] As mentioned above, solubility of yellow color-formers exemplified by structure I in nonaqueous solvents such as those used in the encapsulation process may be increased by substituting alkyl, aryl, aralkyl, alkenyl, or such groups for the hydrogens on the various positions available in the structure I above.
(§1) This color observed on the CF sheet was yellow. […] Solubility in a solvent blend of tributyl phosphate, diethyl phthalate and cyclohexane (capsule solvents for preparing carbonless copy-paper) was >9% by weight. Thus the ligand is eminently suitable for encapsulation. The ligand is not volatile at 71 ° C. overnight.
Solubility in a solvent blend of tributyl phosphate, diethyl phthalate and cyclohexane (capsule solvents for preparing carbonless copy-paper) was 3% by weight. Thus the ligand is eminently suitable for encapsulation. The ligand is not volatile at 71 ° C. overnight.
*THE SOLUBILITY WAS DEEMED PREFERABLE IF IT WAS GREATER THAN 2% IN THE
FILL MIX AT ROOM TEMPERATURE FOR 3 DAYS. THE FILL MIX COMPRISED
TRIBUTYLPHOSPHATE (26.5%); DIETHYLPHTHALATE (17.6%); AND CYCLOHEXANE

[3] = Imaging of CB sheet with encapsulated color-former on Ni-coated CF sheet; format: physicochemical; conditions: carbonless paper capsules
Experimental: A precondensate solution was prepared comprising 192 g of formalin, 0.63 g of potassium tetraborate, 72 g of urea, and 328 g of soft water. The formalin was 37% formaldehyde and was added to a 1-liter flask equipped with a stirrer and heating mantle. The potassium tetraborate and urea were then added, and the mixture was heated to 70° C. The reaction was maintained at that temperature for 2.5-3.0 hr. The reaction mixture was then diluted with the water and allowed to cool. The precondensate solution, with about 24% solids, was then ready for use in the encapsulation process.
The precondensate and fill (ethanediimidic acid bis[hydrazide] and carrier or fill solvents) were combined to make capsules according to the following procedure. Sodium chloride (29.54 g) was added to the stirred precondensate solution and the temperature of the solution was adjusted to 20° C. The fill material (215 g) was added and full agitation was begun. After 5 minutes of stirring, 10% hydrochloric acid solution was added over 5 minutes in an amount such that the final pH of the reaction mixture was about 2.8. The reaction mixture was stirred for another 12 minutes. More of the 10% hydrochloric acid solution was added over a period of 12 minutes, in an amount such that the final pH of the solution was about […]. The reaction mixture was stirred at 20° C. for 1 hr, and then at 60° C. for 1-3 hr. The acidic solution was allowed to cool and adjusted to a pH of 7 by addition of concentrated ammonium hydroxide solution (28%). The capsule slurry could then be stored for later use.
The capsule slurry (10 g) was added to 65 g of a 1.5% aqueous sodium alginate solution. The mixture was applied to a coated paper using a bar coater with a 3 mil gap. The coating was allowed to dry at room temperature.
A 2% solution of the compound 1 in the capsule fill solvent of diethyl phthalate, tributyl phosphate, and cyclohexane was encapsulated by the procedure described in Experiment 5 above. A coating mixture of 10.0 g of capsule slurry, 2.5 g of Dow-620 butadiene-styrene latex, and 62.5 g of 1.5% sodium alginate slurry was coated onto paper by the draw down procedure described above.
A 7.5% solution comprising 5.45% N-(5-octanoylamido-2-metylpentyl)dithiooxamide/N-(5-octanoylamido-4-methylpentyl)dithiooxamide (G') mixture and 2.05% N,N'-di(5-octanoylamido-2-methylpentyl)dithiooxamide/N-(5-octanoylamido-2- methylpentyl)-N'-(5-octanoylamido-4-methylpentyl)dithiooxamide/N,N'-(5-octanoylamido-2-methylpentyl)dithiooxamide (G) mixture in the fill solvent mixture of diethyl phthalate, tributyl phosphate, and cyclohexanone was encapsulated by the procedure described above. A coating mixture of 10.0 g of capsule slurry, 2.5 g of Dow 620 styrene-butadiene latex, and 62.5 g of 1.5% sodium alginate solution was coated onto paper by the draw down procedure described in Experiment 5 above.
A blend was prepared of 10 g of the capsule slurry containing compound 1, with 10 g of capsule slurry containing 5.45% N-(5-octanoylamido-2-methylpentyl)dithiooxamide/N-(5-octanoylamido-4-methylpentyl)dithiooxamide (G') mixture and 2.05% N,N'-di(5-octanoylamido-2-methylpentyl)dithiooxamide/N-(5-octanoylamido-2- methylpentyl)-N'-(5-octanoylamido-4-methylpentyl)dithiooxamide/N,N'-di(5-octanoylamido-4-methylpentyl)dithiooxamide (G) mixture. […]

[4] = Stability in concentrated hydrochloric acid; format: physicochemical
[5] = Color formation with zinc salts (zinc rosinate); format: physicochemical
Experimental: as §1
This color observed on the CF sheet was yellow.

[6] = Volatility: transfer from simulated donor sheet to receptor sheet; format: physicochemical; conditions: 71 ° C. overnight
Text: The method utilized in the experiments to both define and evaluate the level of volatility was as follows. A single sheet piece of Grade #10 (20×12 cm) cheesecloth (AF & F., Item No. 588033, American Fiber and Finishing, Inc., Burlington, Mass.) was placed between a simulated donor sheet and a receptor sheet of a carbonless paper construction. The simulated donor sheet comprised a sheet of paper saturated with color-former of structure I, which was used to simulate a CB sheet with ruptured capsules. Pressure was then applied for 24 hours by placing 9 pounds of paper on top of the sheets, to simulate storage conditions of the paper packages. The formation of color on the receptor sheet, due to transfer of volatile color-former thereto, was used as an indication that the particular color-former was less than optimally desirable for carbonless paper constructions, i.e., was volatile. A compound was considered generally to be nonvolatile, within the meaning of the term as used herein to define the present invention and thus to define color-formers most acceptable for use in carbonless image transfer arrangements, if no color was formed after the simulated test was run for about 24 hours at 25° C. In some instances, if no color was formed after storage at room temperature (25° C.), successively higher temperatures were used, as for example 49° C., 60° C., and 71° C. […]

[7] = background art; cited from earlier work
[8] = 1% solution in encapsulation fill mix swabbed onto 3M CF sheet (Experiments 2, 3)

SMILES | Chroma [1] | Image Color [1] | Hunter Coordinates L [1] | Hunter Coordinates a [1] | Hunter Coordinates b [1] | solubility in encapsulation / capsule solvents (in words) [2] | Dye Solubility [2] | color developed upon imaging [3] | Hunter coordinate L [1, 8] | Hunter coordinate a [1, 8] | Hunter coordinate b [1, 8] | color observed on the CF sheet ([1]; 1% solution swabbed (Experiments 2, 3)) | Solubility in a solvent blend of tributyl phosphate, diethyl phthalate and cyclohexane [2] | stability in concentrated hydrochloric acid [4] | color formation when reacted with zinc rosinate [5] | volatility [6] | image color with metal [7]
NC(=NN=Cc1ccccc1O)C(N)=NN=Cc1ccccc1O [Compound 9, Ethanediimidic acid bis[(2-hydroxyphenylmethylene)hydrazide]] | 40.7 | Yellow | 84.5 | -9.7 | 39.5 | too low in the solvent blend used in many carbonless paper capsules | < 2.0% | weak and often unacceptable |  |  |  |  |  |  |  |  | 
C=CCc1cccc(C=NN=C(N)C(N)=NN=Cc2cccc(CC=C)c2O)c1O [Compound 16, ethanediimidic acid bis[(3-allylsalicylidene)hydrazide]] | 41.6 | Yellow | 82.5 | -6.6 | 41.0 | good solubility in capsule solvents | > 3.0% |  | 82.5 | -6.64 | 41.0 | yellow | 3 % by weight | stable | does not form color | not volatile | 
S=C(NCc1ccccc1)C(=S)NCc1ccccc1 [H, N,N'-di(benzyl)dithiooxamide] |  |  |  |  |  |  |  |  |  |  |  |  |  |  |  |  | blue-purple
